Assay [1] deals with T1, human V1a receptor (Homo sapiens, UniProt P37288).
T1 construct: expressed in transfected cells
Description: cell-based. As to the method:
The V1a receptor is a G-protein coupled receptor, which upon activation triggers an increase in intracellular calcium mobilization. To evaluate compounds for their functional V1a receptor activity, HEK-293 cells were transfected with the human V1a receptor (V1a-HEK cells). HEK-293 cells were grown in DMEM (Dulbecco's modified Eagle Media) supplemented with 10% FBS and glutamine. HEK-cells were passed biweekly by trypsinization and seeded into 96 well plates at 33,000 cells per well. HEK-293 cells were transfected with human V1a receptor DNA using DMRIE-C reagent from Life Technologies (Carlsbad, Calif.). Stable lines were generated by selecting cells grown in culture media containing geneticin. After growing in Packard Clear-View black 96 well plates for 4-6 days, V1a-HEK cells were loaded with the calcium-sensitive fluorescence dye, FLUO-3 AM. Changes in intracellular calcium mobilization were measured by quantitating intracellular fluorescence using FLIPR (Fluorometric Imaging Plate Reader; Molecular Devices, Sunnyvale, Calif.). Test compounds were first added to the cells and the resulting changes in fluorescence measured to detect receptor agonistic activity. Five minutes later the cells were challenged with vasopressin to test compounds for their antagonistic activity. Receptor antagonists inhibit the ability of vasopressin to stimulate increases in intracellular fluorescence.

Assay [2] addresses human V2 receptor (Homo sapiens, UniProt P30518). Nature of the assay: V2 vasopressin receptor functional activity (cAMP accumulation). On the set-up: expressed in transfected cells; host or cells: HEK-293. It counts as cell-based. On the procedure:
The V2 receptor is also a G-protein coupled receptor which when activated induces an increase in cAMP turnover. Antagonism against the V2 receptor is determined by measuring cAMP accumulation in transfected HEK-293 cells expressing the human V-2 receptor (V2-HEK cells). Compounds are tested for their ability to block the stimulatory effects of vasopressin on cAMP accumulation. The cell content of cAMP is measured by radioimmunoassay using NEN flashplates.

Setting [3] is: V2-HEK cells, block of vasopressin-stimulated cAMP accumulation, read-out: V2 (functional) IC50.
Where [4] appears, read: V1 (functional) IC50, V1a-HEK cells, inhibition of vasopressin-stimulated intracellular calcium mobilization.
The mark [5] stands for this setting: V1a-HEK cells, inhibition of vasopressin-stimulated intracellular calcium mobilization, read-out: V1 (functional) IC50.

Like-named read-outs stand apart in the source and are kept apart here.

human V2 receptor, sequence (P30518 whole entry): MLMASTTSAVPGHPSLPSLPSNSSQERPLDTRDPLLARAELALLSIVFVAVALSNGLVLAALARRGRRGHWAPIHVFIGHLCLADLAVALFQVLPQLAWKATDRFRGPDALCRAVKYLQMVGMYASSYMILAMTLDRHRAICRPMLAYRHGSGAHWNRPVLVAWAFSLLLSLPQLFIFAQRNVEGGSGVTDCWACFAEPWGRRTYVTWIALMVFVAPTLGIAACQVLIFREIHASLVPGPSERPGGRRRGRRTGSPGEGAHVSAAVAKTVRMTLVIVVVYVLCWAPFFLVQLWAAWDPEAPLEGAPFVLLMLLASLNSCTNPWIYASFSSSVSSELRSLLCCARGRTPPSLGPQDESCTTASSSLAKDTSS
T1 sequence (P37288 whole entry): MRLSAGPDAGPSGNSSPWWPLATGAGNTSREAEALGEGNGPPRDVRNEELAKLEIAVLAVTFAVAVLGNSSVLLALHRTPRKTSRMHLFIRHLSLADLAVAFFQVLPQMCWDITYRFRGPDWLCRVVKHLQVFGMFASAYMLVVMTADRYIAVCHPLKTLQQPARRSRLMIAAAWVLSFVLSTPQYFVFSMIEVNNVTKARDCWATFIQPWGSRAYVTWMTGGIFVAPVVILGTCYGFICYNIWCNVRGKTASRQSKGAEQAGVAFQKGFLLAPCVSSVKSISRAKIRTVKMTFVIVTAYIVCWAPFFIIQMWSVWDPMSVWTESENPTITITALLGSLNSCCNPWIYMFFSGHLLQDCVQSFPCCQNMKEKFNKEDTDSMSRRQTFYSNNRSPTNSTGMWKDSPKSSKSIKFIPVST

Turning to `COc1cc(C(=O)N2CC[C@]3(C=C(C(=O)NS(=O)(=O)N(C)C)CC3)Cc3ccccc32)ccc1NC(=O)c1cc(F)ccc1Cl` [Cpd 36, (R)-N-[3-methoxy-4-(2-chloro-5-fluoro-phenylcarbonyl)amino-phenylcarbonyl]-3-[(dimethylaminosulfonyl)aminocarbonyl]-spiro[cyclopent-2-ene-1,4′-benzo[b]azepane]], the IC50 in assay [1] amounted to 0.21 µM; in assay [2] (setting [3]), 0.17 µM.
`COc1cc(C(=O)N2CC[C@@]3(CCC(N4CCOCC4)C3)Cc3ccccc32)ccc1NC(=O)c1cc(F)ccc1Cl` (stereo partly drawn) [Cpd 18, (1R)—N-[3-methoxy-4-(2-chloro-5-fluoro-phenylcarbonyl)amino-phenylcarbonyl]-3-morpholin-4-yl-spiro[cyclopentane-1,4′-benzo[b]azepane]]: the IC50 amounted to 0.24 µM in assay [1] and 1.2 µM in assay [2] (setting [3]).
Turning to `CON=C1CC[C@@]2(CCN(C(=O)c3ccc(NC(=O)c4cc(F)ccc4Cl)c(OC)c3)c3ccccc3C2)C1` [Cpd 22, (R)—N-[3-methoxy-4-(2-chloro-5-fluoro-phenylcarbonyl)amino-phenylcarbonyl]-3-methoxyimino-spiro[cyclopentane-1,4′-benzo[b]azepane]], the IC50 in assay [1] (setting [4]) was 0.29 µM; in assay [2] (setting [3]), 0.74 µM.
Turning to `COc1cc(C(=O)N2CCC3(CCCC3NS(N)(=O)=O)Cc3ccccc32)ccc1NC(=O)c1cc(F)ccc1Cl` (stereo not shown) [Cpd 33, 2-aminosulfonylamino-N-[3-methoxy-4-(2-chloro-5-fluoro-phenylcarbonyl)amino-phenylcarbonyl]-spiro[cyclopentane-1,4′-benzo[b]azepane]], the IC50 in assay [1] came out at 0.33 µM; in assay [2] (setting [3]), 0.031 µM.
On to `COc1cc(C(=O)N2CC[C@@]3(CCC(N4CCN(C)CC4)C3)Cc3ccccc32)ccc1NC(=O)c1cc(F)ccc1Cl` (stereo partly drawn) [Cpd 23, (1R)—N-[3-methoxy-4-(2-chloro-5-fluoro-phenylcarbonyl)amino-phenylcarbonyl]-3-(4-methyl-piperazin-1-yl)-spiro[cyclopentane-1,4′-benzo[b]azepane]], for which the IC50 in assay [1] (setting [5]) was found to be 0.71 µM.
For `COc1cc(C(=O)N2CC[C@@]3(CCC(=CC(=O)NCCN4CCOCC4)C3)Cc3ccccc32)ccc1NC(=O)c1cc(F)ccc1Cl` [Cpd 28, (R)—N-[3-methoxy-4-(2-chloro-5-fluoro-phenylcarbonyl)amino-phenylcarbonyl]-3-(2-morpholin-4-yl-ethyl)aminocarbonylmethylene-spiro[cyclopentane-1,4′-benzo[b]azepane]], the IC50 in assay [1] amounted to 0.22 µM; in assay [2] (setting [3]), 0.2 µM.
For `COc1cc(C(=O)N2CC[C@@]3(CCC(=NOCC(=O)O)C3)Cc3ccccc32)ccc1NC(=O)c1cc(F)ccc1Cl` [Cpd 24, (R)—N-[3-methoxy-4-(2-chloro-5-fluoro-phenylcarbonyl)amino-phenylcarbonyl]-3-carboxymethoxyimino-spiro[cyclopentane-1,4′-benzo[b]azepane]], the IC50 was 0.1 µM in assay [1] and 0.22 µM in assay [2] (setting [3]).
With `COc1cc(C(=O)N2CC[C@@]3(CCC(N(C)C)C3)Cc3ccccc32)ccc1NC(=O)c1cc(F)ccc1Cl` (stereo partly drawn) [Cpd 20, (1R)—N-[3-methoxy-4-(2-chloro-5-fluoro-phenylcarbonyl)amino-phenylcarbonyl]-3-dimethylamino-spiro[cyclopentane-1,4′-benzo[b]azepane]], the IC50 in assay [1] (setting [5]) stood at 0.49 µM.
As to `COc1cc(C(=O)N2CC[C@@]3(CCC(=NN(C)C)C3)Cc3ccccc32)ccc1NC(=O)c1cc(F)ccc1Cl` [Cpd 27, (R)—N-[3-methoxy-4-(2-chloro-5-fluoro-phenylcarbonyl)amino-phenylcarbonyl]-3-dimethylaminoimino-spiro[cyclopentane-1,4′-benzo[b]azepane]], the IC50 is 0.13 µM in assay [1] (setting [4]) and 0.39 µM in assay [2] (setting [3]).
As for `COc1cc(C(=O)N2CC[C@]3(C=C(c4ncc[nH]4)CC3)Cc3ccccc32)ccc1NC(=O)c1cc(F)ccc1Cl` [Cpd 14, (R)-N-[3-methoxy-4-(2-chloro-5-fluoro-phenylcarbonyl)amino-phenylcarbonyl]-3-(1H-imidazol-2-yl)-spiro[cyclopent-2-ene-1,4′-benzo[b]azepane]], the IC50 in assay [1] (setting [5]) turned out to be 0.095 µM; in assay [2] (setting [3]), 0.73 µM.
On to `COc1cc(C(=O)N2CC[C@@]3(CCC(=CC(=O)NCCO)C3)Cc3ccccc32)ccc1NC(=O)c1cc(F)ccc1Cl` [Cpd 29, (R)—N-[3-methoxy-4-(2-chloro-5-fluoro-phenylcarbonyl)amino-phenylcarbonyl]-3-(2-hydroxy-ethyl)aminocarbonylmethylene-spiro[cyclopentane-1,4′-benzo[b]azepane]], for which the IC50 is 0.17 µM in assay [1] (setting [4]) and 0.09 µM in assay [2] (setting [3]).
Consider `COC(=O)C=C1CC[C@@]2(CCN(C(=O)c3ccc(NC(=O)c4cc(F)ccc4Cl)c(OC)c3)c3ccccc3C2)C1` [Cpd 26, (R)—N-[3-methoxy-4-(2-chloro-5-fluoro-phenylcarbonyl)amino-phenylcarbonyl]-3-methoxycarbonylmethylene-spiro[cyclopentane-1,4′-benzo[b]azepane]], for which the IC50 in assay [1] (setting [4]) was 4 µM; in assay [2] (setting [3]) it was 0.07 µM.
In the case of `COc1cc(C(=O)N2CC[C@@]3(CCC(=CC(=O)O)C3)Cc3ccccc32)ccc1NC(=O)c1cc(F)ccc1Cl` [Cpd 16, (R)-N-[3-methoxy-4-(2-chloro-5-fluoro-phenylcarbonyl)amino-phenylcarbonyl]-3-carboxymethylene-spiro[cyclopentane-1,4′-benzo[b]azepane]], the figures for the IC50 in assay [1] and in assay [2] (setting [3]) were 0.03 µM and 0.074 µM, respectively.
`COc1cc(C(=O)N2CC[C@]3(C=C(c4nnn[nH]4)CC3)Cc3ccccc32)ccc1NC(=O)c1cc(F)ccc1Cl` [Cpd 11, (R)-N-[3-methoxy-4-(2-chloro-5-fluoro-phenylcarbonyl)amino-phenylcarbonyl]-3-tetrazol-5-yl-spiro[cyclopent-2-ene-1,4′-benzo[b]azepane]]: the figures for the IC50 in assay [1] (setting [5]) and in assay [2] (setting [3]) were 0.063 µM and 0.04 µM, respectively.
In the case of `COc1cc(C(=O)N2CC[C@@]3(CC[C@H](NS(N)(=O)=O)C3)Cc3ccccc32)ccc1NC(=O)c1cc(F)ccc1Cl` [Cpd 34, (1R,3S)-3-aminosulfonylamino-N-[3-methoxy-4-(2-chloro-5-fluoro-phenylcarbonyl)amino-phenylcarbonyl]-spiro[cyclopentane-1,4′-benzo[b]azepane]], the IC50 in assay [1] (setting [4]) and in assay [2] (setting [3]) was 0.25 µM throughout.
With `COc1cc(C(=O)N2CC[C@@]3(CCC(NCCN(C)C)C3)Cc3ccccc32)ccc1NC(=O)c1cc(F)ccc1Cl` (stereo partly drawn) [Cpd 21, (1R)—N-[3-methoxy-4-(2-chloro-5-fluoro-phenylcarbonyl)amino-phenylcarbonyl]-3-(2-dimethylamino-ethyl)amino-spiro[cyclopentane-1,4′-benzo[b]azepane]], the values for the IC50 in assay [1] and in assay [2] (setting [3]) were 0.17 µM and 1.1 µM, respectively.
Regarding `COc1cc(C(=O)N2CC[C@@]3(CCC(=NO)C3)Cc3ccccc32)ccc1NC(=O)c1cc(F)ccc1Cl` [Cpd 15, (R)-N-[3-methoxy-4-(2-chloro-5-fluoro-phenylcarbonyl)amino-phenylcarbonyl]-3-hydroxyimino-spiro[cyclopentane-1,4′-benzo[b]azepane]], the IC50 in assay [1] (setting [4]) amounted to 0.09 µM; in assay [2], 0.4 µM.
In the case of `COc1cc(C(=O)N2CC[C@]3(C=C(C(=O)NS(N)(=O)=O)CC3)Cc3ccccc32)ccc1NC(=O)c1cc(F)ccc1Cl` [Cpd 13, (R)-3-aminosulfonylaminocarbonyl-N-[3-methoxy-4-(2-chloro-5-fluoro-phenylcarbonyl)amino-phenylcarbonyl]-spiro[cyclopent-2-ene-1,4′-benzo[b]azepane]], the IC50 in assay [1] (setting [5]) was found to be 0.027 µM; in assay [2] (setting [3]), 0.011 µM.

The values above are taken from patent publication US20080306044A1, “SPIROBENZOAZEPANES AS VASOPRESSIN ANTAGONISTS” (priority 2007, published 2008).
